Measurements as given in PMC6222927, “Aminobenzosuberone Scaffold as a Modular Chemical Tool for the Inhibition of Therapeutically Relevant M1 Aminopeptidases” (Molecules : A Journal of Synthetic Chemistry and Natural …, 2018).

Legend:
[1] = biological target: T1, P. falciparum rPfAM1 (Plasmodium falciparum, UniProt O96935); experiment: biochemical; type: biochemical
T1 construct: made in house; host or cells: Escherichia coli Rosetta 2 (DE3)
T1 sequence (O96935 1-1085): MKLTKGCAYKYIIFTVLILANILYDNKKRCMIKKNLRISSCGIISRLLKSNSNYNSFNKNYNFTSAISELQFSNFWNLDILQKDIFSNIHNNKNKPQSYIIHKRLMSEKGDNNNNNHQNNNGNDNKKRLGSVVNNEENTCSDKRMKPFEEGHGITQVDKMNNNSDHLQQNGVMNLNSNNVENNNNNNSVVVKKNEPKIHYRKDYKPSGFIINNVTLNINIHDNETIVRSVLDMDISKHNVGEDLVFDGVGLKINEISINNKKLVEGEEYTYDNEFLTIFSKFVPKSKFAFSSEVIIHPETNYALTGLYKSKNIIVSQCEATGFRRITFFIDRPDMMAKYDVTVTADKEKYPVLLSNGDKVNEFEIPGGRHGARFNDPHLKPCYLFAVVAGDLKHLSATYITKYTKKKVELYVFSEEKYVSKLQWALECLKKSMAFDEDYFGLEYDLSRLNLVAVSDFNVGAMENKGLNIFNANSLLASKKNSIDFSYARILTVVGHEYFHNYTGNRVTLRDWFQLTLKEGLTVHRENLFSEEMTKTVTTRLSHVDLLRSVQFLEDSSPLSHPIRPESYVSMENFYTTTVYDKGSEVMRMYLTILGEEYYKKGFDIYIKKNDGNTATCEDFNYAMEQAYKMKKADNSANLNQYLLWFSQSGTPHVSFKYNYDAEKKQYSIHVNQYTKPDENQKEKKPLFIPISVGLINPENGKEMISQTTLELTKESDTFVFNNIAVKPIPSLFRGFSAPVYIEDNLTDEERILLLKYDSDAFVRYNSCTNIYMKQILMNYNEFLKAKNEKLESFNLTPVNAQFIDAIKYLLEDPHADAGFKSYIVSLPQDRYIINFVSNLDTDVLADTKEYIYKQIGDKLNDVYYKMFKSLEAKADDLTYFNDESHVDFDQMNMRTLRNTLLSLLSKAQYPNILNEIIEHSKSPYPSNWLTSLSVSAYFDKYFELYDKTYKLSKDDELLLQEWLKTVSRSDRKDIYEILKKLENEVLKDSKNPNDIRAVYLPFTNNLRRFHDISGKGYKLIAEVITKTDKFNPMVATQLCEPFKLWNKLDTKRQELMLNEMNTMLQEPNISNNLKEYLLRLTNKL
Description: Initial velocities were measured with increasing concentrations of inhibitors and Ki values were determined by Dixon plots in triplicate.

[2] = biological target: pAPN from porcine kidney; conditions: Dixon plots; cited from earlier work

NC1CCc2c(Br)cccc2CC1=O (centres unmarked) [21e]
Ki [1]: 1000 ± 40 nM
Ki [2]: 20 nM
